Measurements from ChEMBL document CHEMBL1201862, “PubChem BioAssay data set” (2004).
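These data come from cells grown in 96-well plates and exposed to compound for 48 hours at five concentrations. At the GI50, growth is halved.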 Calls of active or inactive are those of the source. Rule as the data show it: active = GI50 up to about 1.1 µM and inactive = higher.

Tests used:
Assay in all cases: inhibition of tumour cell growth, NCI panel, 48 h
A549 = system: A549
CAKI-1 = system: CAKI-1
COLO 205 = system: COLO 205
HCT-15 = system: HCT-15
HOP-62 = system: HOP-62
HT-29 = system: HT-29
IGROV-1 = system: IGROV-1
K562 = system: K562
KM12 = system: KM12
LOX IMVI = system: LOX IMVI
MDA-MB-435 = system: MDA-MB-435
NCI-H522 = system: NCI-H522
OVCAR-3 = system: OVCAR-3
OVCAR-5 = system: OVCAR-5
SF-268 = system: SF-268
SNB-19 = system: SNB-19
DU-145 = system: DU-145
RXF 393 = system: RXF 393
SN12C = system: SN12C
BT-549 = system: BT-549

Measured: GI50

CCOC(=O)N1CCC2(CC1)C[C@](C)(C(C)=O)C(C)O2 (some centres not stated)
> 100 µM: HCT-15
inactive: A549 > 100 µM | CAKI-1 > 100 µM | COLO 205 > 100 µM | HOP-62 > 100 µM | HT-29 > 100 µM | IGROV-1 > 100 µM | K562 > 100 µM | KM12 > 100 µM | LOX IMVI > 100 µM | MDA-MB-435 > 100 µM | NCI-H522 > 100 µM | OVCAR-3 > 100 µM | OVCAR-5 > 100 µM | SF-268 > 100 µM | SNB-19 > 100 µM

O=[N+]([O-])c1ccc(Cl)cc1C1ON=C(c2ccccc2)N1C12CC3CC(CC(C3)C1)C2 (configuration not stated)
> 100 µM: HCT-15
inactive: A549 > 100 µM | CAKI-1 > 100 µM | COLO 205 > 100 µM | DU-145 > 100 µM | HOP-62 > 100 µM | HT-29 > 100 µM | IGROV-1 > 100 µM | K562 > 100 µM | LOX IMVI 57.5 µM | MDA-MB-435 > 100 µM | NCI-H522 > 100 µM | OVCAR-3 97.7 µM | OVCAR-5 > 100 µM | RXF 393 > 100 µM | SF-268 > 100 µM | SN12C > 100 µM | SNB-19 > 100 µM

O=S(=O)(c1ccc(/N=C2\NC(c3ccc(O)cc3)(c3ccccc3O)c3ccccc32)cc1)c1ccc(/N=C2/NC(c3ccc(O)cc3)(c3ccccc3O)c3ccccc32)cc1 (configuration not stated)
5.79 µM: HCT-15
inactive: A549 6.15 µM | CAKI-1 12.9 µM | COLO 205 3.56 µM | DU-145 4.65 µM | HOP-62 5.28 µM | HT-29 3.09 µM | IGROV-1 2.68 µM | K562 3.52 µM | KM12 2.48 µM | LOX IMVI 2.96 µM | NCI-H522 2.02 µM | OVCAR-3 4.74 µM | OVCAR-5 9.27 µM | RXF 393 4.02 µM | SF-268 3.38 µM | SN12C 3.78 µM | SNB-19 5.08 µM

CC(=O)N1CC(C)(C)c2c1cc(C)c(O)c2C
> 100 µM: HCT-15
inactive: A549 > 100 µM | COLO 205 > 100 µM | DU-145 > 100 µM | HOP-62 > 100 µM | HT-29 > 100 µM | IGROV-1 > 100 µM | K562 > 100 µM | KM12 > 100 µM | LOX IMVI > 100 µM | MDA-MB-435 > 100 µM | NCI-H522 > 100 µM | OVCAR-3 > 100 µM | OVCAR-5 > 100 µM | RXF 393 > 100 µM | SF-268 > 100 µM | SN12C > 100 µM | SNB-19 > 100 µM

O=C(c1ccco1)N(C(=S)N1CCN(c2ccccn2)CC1)C1CCCCC1
> 100 µM: HCT-15
inactive: A549 > 100 µM | CAKI-1 > 100 µM | COLO 205 > 100 µM | HOP-62 > 100 µM | HT-29 > 100 µM | IGROV-1 > 100 µM | K562 > 100 µM | KM12 > 100 µM | LOX IMVI > 100 µM | NCI-H522 > 100 µM | OVCAR-3 > 100 µM | OVCAR-5 > 100 µM | RXF 393 > 100 µM | SF-268 > 100 µM | SN12C > 100 µM | SNB-19 > 100 µM

CNC(=O)N(CCCCC(NC(C)=O)C(=O)NCc1ccccc1)Cc1ccccc1 (configuration not stated)
> 100 µM: HCT-15
inactive: A549 > 100 µM | CAKI-1 > 100 µM | COLO 205 > 100 µM | HOP-62 > 100 µM | HT-29 > 100 µM | IGROV-1 > 100 µM | K562 > 100 µM | KM12 > 100 µM | LOX IMVI > 100 µM | NCI-H522 > 100 µM | OVCAR-3 > 100 µM | OVCAR-5 > 100 µM | RXF 393 > 100 µM | SF-268 > 100 µM | SN12C > 100 µM | SNB-19 > 100 µM

CCOC(=O)CC(=O)C(=O)NN=C1NCCCN1
> 100 µM: HCT-15
inactive: A549 > 100 µM | BT-549 > 100 µM | COLO 205 > 100 µM | DU-145 > 100 µM | HOP-62 > 100 µM | HT-29 > 100 µM | IGROV-1 > 100 µM | K562 > 100 µM | KM12 > 100 µM | LOX IMVI > 100 µM | MDA-MB-435 > 100 µM | OVCAR-3 > 100 µM | OVCAR-5 > 100 µM | RXF 393 > 100 µM | SF-268 > 100 µM | SN12C > 100 µM | SNB-19 > 100 µM

O=C(Cn1c(=O)ccn(C2OC(CO)C(O)C2F)c1=O)c1ccc(F)cc1 (configuration not stated)
inactive: A549 > 100 µM | CAKI-1 > 100 µM | COLO 205 > 100 µM | DU-145 > 100 µM | HOP-62 > 100 µM | HT-29 > 100 µM | IGROV-1 > 100 µM | K562 > 100 µM | KM12 > 100 µM | LOX IMVI > 100 µM | MDA-MB-435 > 100 µM | NCI-H522 > 100 µM | OVCAR-3 > 100 µM | OVCAR-5 > 100 µM | RXF 393 > 100 µM | SF-268 > 100 µM | SN12C > 100 µM | SNB-19 > 100 µM
> 100 µM: HCT-15

O=c1[nH]c(N/N=C\C(O)C(O)C(O)C(O)CO)nc2ccccc12 (configuration not stated)
> 100 µM: HCT-15
inactive: A549 > 100 µM | BT-549 > 100 µM | CAKI-1 > 100 µM | COLO 205 > 100 µM | DU-145 > 100 µM | HOP-62 > 100 µM | HT-29 > 100 µM | IGROV-1 > 100 µM | K562 > 100 µM | KM12 > 100 µM | LOX IMVI > 100 µM | MDA-MB-435 > 100 µM | OVCAR-3 > 100 µM | OVCAR-5 > 100 µM | SF-268 > 100 µM | SN12C > 100 µM | SNB-19 > 100 µM

O=C(Cc1ccccc1)NNc1nc(NNC(=O)c2ccncc2)nc(Nc2ccc(Cl)cc2)n1
> 10 µM: HCT-15
inactive: A549 > 10 µM | BT-549 > 10 µM | CAKI-1 > 10 µM | COLO 205 > 10 µM | DU-145 > 10 µM | HOP-62 > 10 µM | IGROV-1 > 10 µM | K562 > 10 µM | KM12 > 10 µM | LOX IMVI > 10 µM | SF-268 > 10 µM | SN12C > 10 µM

Nc1nc(NCc2ccccc2)cc(NCc2ccccc2)n1
inactive: A549 9.48 µM | BT-549 7.55 µM | CAKI-1 2.64 µM | COLO 205 2.97 µM | HOP-62 12.8 µM | HT-29 2.88 µM | IGROV-1 4.44 µM | K562 5.75 µM | KM12 4.28 µM | LOX IMVI 4.23 µM | MDA-MB-435 2.48 µM | NCI-H522 4.24 µM | OVCAR-3 3.69 µM | OVCAR-5 16.9 µM | RXF 393 6.31 µM | SF-268 4 µM | SN12C 4.57 µM | SNB-19 8.39 µM
3.52 µM: HCT-15

CSC(SC)=C1C(=O)N(c2ccccc2)N=C1C
24.1 µM: HCT-15
inactive: A549 30.8 µM | BT-549 21.6 µM | CAKI-1 29 µM | COLO 205 19.9 µM | HOP-62 35.4 µM | HT-29 35.8 µM | IGROV-1 29.3 µM | K562 27.1 µM | KM12 41.1 µM | LOX IMVI 34 µM | NCI-H522 17.5 µM | OVCAR-5 29.5 µM | RXF 393 25 µM | SF-268 61.1 µM | SN12C 30.7 µM | SNB-19 30.9 µM

O=c1[nH]c2ccc(CC(=S)N3CCOCC3)cc2o1
inactive: BT-549 > 100 µM | CAKI-1 > 100 µM | COLO 205 > 100 µM | HOP-62 > 100 µM | HT-29 > 100 µM | IGROV-1 > 100 µM | KM12 > 100 µM | LOX IMVI > 100 µM | MDA-MB-435 > 100 µM | OVCAR-3 > 100 µM | OVCAR-5 > 100 µM | RXF 393 > 100 µM | SF-268 > 100 µM
> 100 µM: HCT-15

COC(=O)C1CCC(=O)N1CN(C(C)=O)c1cccc(O)c1 (configuration not stated)
inactive: A549 > 100 µM | CAKI-1 > 100 µM | COLO 205 > 100 µM | DU-145 > 100 µM | HOP-62 > 100 µM | HT-29 > 100 µM | IGROV-1 > 100 µM | K562 > 100 µM | KM12 > 100 µM | LOX IMVI > 100 µM | MDA-MB-435 > 100 µM | NCI-H522 > 100 µM | OVCAR-3 > 100 µM | OVCAR-5 > 100 µM | RXF 393 > 100 µM | SF-268 > 100 µM | SN12C > 100 µM | SNB-19 > 100 µM
> 100 µM: HCT-15

OC1c2ccccc2CCC1C(O)(C(F)(F)F)C(F)(F)F (configuration not stated)
inactive: A549 > 100 µM | CAKI-1 > 100 µM | COLO 205 > 100 µM | DU-145 > 100 µM | HOP-62 > 100 µM | HT-29 > 100 µM | IGROV-1 > 100 µM | K562 > 100 µM | KM12 > 100 µM | LOX IMVI > 100 µM | MDA-MB-435 > 100 µM | NCI-H522 > 100 µM | OVCAR-3 58.6 µM | OVCAR-5 > 100 µM | RXF 393 > 100 µM | SF-268 > 100 µM | SN12C > 100 µM | SNB-19 > 100 µM
> 100 µM: HCT-15

COC(=O)C(=O)C(C(=O)OC)C(=O)C(=O)Nc1ccccc1C(N)=O (configuration not stated)
inactive: A549 > 100 µM | BT-549 > 100 µM | CAKI-1 > 100 µM | HOP-62 > 100 µM | HT-29 > 100 µM | IGROV-1 > 100 µM | KM12 > 100 µM | LOX IMVI > 100 µM | MDA-MB-435 > 100 µM | NCI-H522 > 100 µM | OVCAR-3 > 100 µM | OVCAR-5 > 100 µM | RXF 393 > 100 µM | SF-268 > 100 µM | SN12C > 100 µM | SNB-19 > 100 µM
> 100 µM: HCT-15
